How the values were obtained:
T. b. brucei GUTat3.1 = test: In vitro trypanocidal activity (CellTiter-Glo, 3 days); format: cell-based; conditions: Trypanosoma brucei, 72 h, bloodstream forms, 37 °C, mean ± SD of triplicate, read-out: Trypanocidal Activity IC50 ± SD, Tbb GUTat3.1
Protocol: (§1) The bloodstream forms of T. b. brucei GUTat3.1, T. b. rhodesiense IL1501, T. b. rhodesiense Chirundu, T. b. gambiense IL1922, and T. evansi Tansui strains were propagated in culture at 37 °C, whereas the T. congolense IL3000 strain was propagated at 33 °C in Hirumi’s modified Iscove’s medium-9, supplemented with 20% heat-inactivated fetal bovine serum. The bloodstream form cultures were maintained by replacing the entire culture supernatant with fresh medium, every other day.
(§2) The trypanocidal activity and cytotoxicity of nitrofurantoin analogs were evaluated according to previous reports, with some modifications. In brief, bloodstream forms adjusted at 2.5 × 10^3 cells/mL (T. b. brucei GUTat3.1, T. b. gambiense IL1922, and T. b. rhodesiense IL1501), 1 × 10^4 cells/mL (T. evansi Tansui and T. b. rhodesiense Chirundu), and 1 × 10^5 cells/mL (T. congolense IL3000), were cultivated in Nunc® MicroWell 96-well optical bottom plates (Thermo Fisher Scientific, Waltham, MA, USA) and exposed to various analogs at seven different concentrations for 3 days, in an incubator at 37 °C (33 °C for T. congolense IL3000). […] Twenty-five microliters of the Cell-TiterGlo® (Promega, Madison, WI, USA) reagent was added into each well, and bioluminescence was measured using a GloMax®-Multi+Detection System plate reader (Promega).
(§3) The half maximum inhibitory concentration (IC50) of each analog in trypanosomes and the Madin–Darby bovine kidney cells was calculated using the GraphPad Prism version 8 software (GraphPad, Inc., San Diego, CA, USA).

T. b. gambiense IL1922 = test: as above; format: cell-based; conditions: Trypanosoma brucei, 72 h, bloodstream forms, 37 °C, mean ± SD of triplicate, read-out: Trypanocidal Activity IC50 ± SD, Tbg IL1922
Protocol: as §1, §2, §3

[1] = tested on: T. b. rhodesiense Chirundu; test: as above; format: cell-based; conditions: Trypanosoma brucei, 72 h, bloodstream forms, 37 °C, mean ± SD of triplicate, read-out: Trypanocidal Activity IC50 ± SD, Tbr Chirundu
Protocol: as §1, §2, §3

T. b. rhodesiense IL1501 = test: as above; format: cell-based; conditions: Trypanosoma brucei, 72 h, bloodstream forms, 37 °C, mean ± SD of triplicate, read-out: Trypanocidal Activity IC50 ± SD, Tbr IL1501
Protocol: as §1, §2, §3

T. congolense IL3000 = test: as above; format: cell-based; conditions: Trypanosoma congolense, 72 h, bloodstream forms, 33 °C, mean ± SD of triplicate, read-out: Trypanocidal Activity IC50 ± SD, Tc IL3000
Protocol: as §1, §2, §3

T. evansi Tansui = test: as above; format: cell-based; conditions: 72 h, bloodstream forms, 37 °C, mean ± SD of triplicate, read-out: Trypanocidal Activity IC50 ± SD, Tev Tansui
Protocol: as §1, §2, §3

[2] = Cytotoxicity (Cell Counting Kit-8, 3 days); format: cell-based, bovine; conditions: bovine, 37 °C, mean ± SD of triplicate
Protocol: Additionally, Madin–Darby bovine kidney cells were cultivated (density, 1 × 10^4 cells/mL) in a 96-well cell culture plate (Thermo Fisher Scientific) with the analogs, at seven different concentrations for 3 days at 37 °C. Next, 10 µl of the Cell Counting Kit-8 solution (Dojindo, Kumamoto, Japan) was added into each well […] 4 h of incubation. Absorbance was measured at 450 nm using a GloMax®-Multi+Detection System plate reader.
as §3

[3] = Madin–Darby bovine kidney (MDBK) cells

Row | SMILES | IC50 (T. b. brucei GUTat3.1) | IC50 (T. b. gambiense IL1922) | IC50 [1] | IC50 (T. b. rhodesiense IL1501) | IC50 (T. congolense IL3000) | IC50 (T. evansi Tansui) | IC50 at 3 days [2, 3] | IC50 at 3 days ([2]; MDBK cells)
1 | CCCN1C(=O)CN(/N=C/c2ccc([N+](=O)[O-])o2)C1=O [Analog 3, (E)-1-([(5-Nitrofuran-2-yl)methylene]amino)-3-propylimidazolidine-2,4-dione] | 14.1 ± 0.34 µM | 14.7 ± 1.32 µM | 0.81 ± 0.24 µM | 14 ± 1.42 µM | 0.33 ± 0.18 µM | 6.53 ± 0.61 µM | 39.3 ± 1.09 µM | –
2 | CCCCN1C(=O)CN(/N=C/c2ccc([N+](=O)[O-])o2)C1=O [Analog 4, (E)-3-Butyl-1-([(5-nitrofuran-2-yl)methylene]amino)imidazolidine-2,4-dione] | 33.3 ± 24.3 µM | 17.2 ± 2.23 µM | 1.38 ± 0.34 µM | 32.7 ± 0.82 µM | 0.31 ± 0.2 µM | 7.89 ± 0.53 µM | 35.8 ± 3.49 µM | –
3 | N=C(N)c1ccc(OCCCCCOc2ccc(C(=N)N)cc2)cc1 [Pentamidine, reference compound] | 0.041 ± 0.0023 µM | 0.014 ± 0.0031 µM | 0.05 ± 0.012 µM | 0.029 ± 0.0062 µM | 0.33 ± 0.054 µM | 0.00097 ± 0.00019 µM | – | –
4 | O=C1CN(/N=C/c2ccc([N+](=O)[O-])o2)C(=O)N1Cc1ccc([N+](=O)[O-])cc1 [Analog 17, (E)-3-(p-Nitrobenzyl)-1-([(5-nitrofuran-2-yl)methylene]amino)imidazolidine-2,4-dione] | 1.07 ± 0.74 µM | 1.05 ± 0.7 µM | 0.04 ± 0.094 µM | 0.5 ± 0.012 µM | 0.04 ± 0.017 µM | 0.61 ± 0.05 µM | – | 20.1 ± 1.02 µM
5 | O=C1CN(/N=C/c2ccc([N+](=O)[O-])o2)C(=O)N1Cc1ccc(Br)cc1 [Analog 19, (E)-3-(p-Bromobenzyl)-1-([(5-nitrofuran-2-yl)methylene]amino)imidazolidine-2,4-dione] | 2.13 ± 0.23 µM | 2.04 ± 0.091 µM | 0.041 ± 0.025 µM | 2.47 ± 0.69 µM | 0.049 ± 0.033 µM | 1.15 ± 0.11 µM | 28.7 ± 5.69 µM | –
6 | CCCCCCCN1C(=O)CN(/N=C/c2ccc([N+](=O)[O-])o2)C1=O [Analog 7, (E)-3-Heptyl-1-([(5-nitrofuran-2-yl)methylene]amino)imidazolidine-2,4-dione] | 2.06 ± 0.75 µM | 1.99 ± 0.75 µM | 0.056 ± 0.026 µM | 1.45 ± 0.86 µM | 0.04 ± 0.011 µM | 1.02 ± 0.1 µM | 92.3 ± 6.52 µM | –
7 | Cc1ccc(CN2C(=O)CN(/N=C/c3ccc([N+](=O)[O-])o3)C2=O)cc1 [Analog 15, (E)-3-(p-Methylbenzyl)-1-([(5-nitrofuran-2-yl)methylene]amino)imidazolidine-2,4-dione] | 8.24 ± 3.11 µM | 2.89 ± 0.51 µM | 0.15 ± 0.068 µM | 6.1 ± 0.047 µM | 0.13 ± 0.044 µM | 4.23 ± 0.4 µM | 34.3 ± 11.5 µM | –
8 | CC1CS(=O)(=O)CCN1/N=C/c1ccc([N+](=O)[O-])o1 (stereo not drawn) [Nifurtimox, reference compound] | 4.66 µM | 4.58 ± 2.38 µM | 1.46 ± 0.35 µM | 4.35 ± 1.59 µM | 1.06 ± 0.22 µM | 2.62 ± 1.4 µM | – | –
9 | CCN1C(=O)CN(/N=C/c2ccc([N+](=O)[O-])o2)C1=O [Analog 2, (E)-3-Ethyl-1-([(5-nitrofuran-2-yl)methylene]amino)imidazolidine-2,4-dione] | 10.8 ± 4.84 µM | 11.3 ± 4.8 µM | – | 11.4 ± 5.24 µM | – | 5.39 ± 0.53 µM | 44.8 ± 1.69 µM | –
10 | O=C1CN(/N=C/c2ccc([N+](=O)[O-])o2)C(=O)N1Cc1ccc(C(F)(F)F)cc1 [Analog 16, (E)-1-([(5-Nitrofuran-2-yl)methylene]amino)-3-(p-(trifluoromethyl)benzyl) imidazolidine-2,4-dione] | 0.52 ± 0.081 µM | 0.61 ± 0.26 µM | 0.02 ± 0.012 µM | 0.96 ± 0.0087 µM | 0.02 µM | 0.44 ± 0.046 µM | 56.6 ± 40.8 µM | –
